In the supplement of paper PMC10307832:

Columns and labels:
Experiment in all cases: relative viability (nuclei count vs DMSO), 5 days (fraction); higher = more cells survive
[1] = compound: C1CNCCC1C2=CC(=NN2)C3=CC=NC=C3 + N=C(N)NC(=N)NCCc1ccccc1 [Phenformin] (partner 250 µM)
Outline: (§1)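 Cells from lung cancer lines were seeded into 1536-well plates and, one day later, dosed by pin tool. Treatments were either a single drug or a fixed dose of an anchor drug with five library-drug doses (not always all listed) in √10 steps. After 5 days, nuclei were stained in a one-step fixation (final 0.05% Triton X-100, 1% formaldehyde, 1 ug/ml Hoechst) and counted on 4× images, and relative viability is the treated-to-vehicle nuclei ratio, as the median of duplicate plates.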

[2] = compound: O[C@H]1CC[C@H](Nc2ncc3nc(Nc4c(F)cc(F)cc4F)n([C@H]4CCOC4)c3n2)CC1 [Tanzisertib] + Cc1nc(Nc2ncc(C(=O)Nc3c(C)cccc3Cl)s2)cc(N2CCN(CCO)CC2)n1 [Dasatinib] (partner 0.075 µM)
Outline: as §1

[3] = compound: C[C@@H](N)c1ccc(C(=O)Nc2ccnc3[nH]ccc23)cc1 + CS(=O)(=O)CCNCc1ccc(-c2ccc3ncnc(Nc4ccc(OCc5cccc(F)c5)c(Cl)c4)c3c2)o1 [Lapatinib] (partner 2 µM)
Outline: as §1

[4] = compound: O[C@H]1CC[C@H](Nc2ncc3nc(Nc4c(F)cc(F)cc4F)n([C@H]4CCOC4)c3n2)CC1 [Tanzisertib] + CCNC(=O)c1noc(-c2cc(C(C)C)c(O)cc2O)c1-c1ccc(CN2CCOCC2)cc1 [Luminespib] (partner 0.01 µM)
Outline: as §1

UMC-11
relative viability ([1]; first compound 0.08 µM): 0.325 | relative viability ([1]; first compound 0.8 µM): 0.209 | relative viability ([1]; first compound 2.53 µM): 0.348 | relative viability ([1]; first compound 8 µM): 0.351 | relative viability ([2]; first compound 0.08 µM): 0.487 | relative viability ([2]; first compound 0.253 µM): 0.456 | relative viability ([2]; first compound 0.8 µM): 0.437 | relative viability ([2]; first compound 2.53 µM): 0.449 | relative viability ([2]; first compound 8 µM): 0.48 | relative viability ([3]; first compound 0.04 µM): 1.02 | relative viability ([3]; first compound 0.1265 µM): 0.974 | relative viability ([3]; first compound 0.4 µM): 1.05 | relative viability ([3]; first compound 1.265 µM): 0.459 | relative viability ([3]; first compound 4 µM): 0.812 | relative viability ([4]; first compound 0.08 µM): 1.1 | relative viability ([4]; first compound 0.253 µM): 1 | relative viability ([4]; first compound 0.8 µM): 0.946 | relative viability ([4]; first compound 2.53 µM): 1.08 | relative viability ([4]; first compound 8 µM): 1.03
